# According to patent US20140357512A1, “HISTONE DEACETYLASE (HDAC) BIOMARKERS IN MULTIPLE MYELOMA” (priority 2013, published 2014):
# System: human myeloma cell line MM.1S
# Experiment: SILAC acetylated-lysine peptide profiling, HDAC inhibitor vs DMSO (light/heavy ratio)
# Assay type: cell-based
# Excerpt: An embodiment of the invention comprises utilizing the SILAC method in order to quantitate changes in protein expression between two or more populations of cells. The SILAC method is a technique based on mass spectrometry that detects differences in protein abundance among samples using non-radioactive isotopic labeling. The SILAC method is known in the art, and described in detail in Ong et al., “Stable Isotope Labeling by Amino Acids in Cell Culture, SILAC, as a Simple and Accurate Approach to Expression Proteomics”, Molecular & Cellular Proteomics, vol. 1, pp. 376-386 (2002), which is incorporated herein by reference in its entirety.
# Briefly, the SILAC method involves growing two populations of cells in cell culture. The first population of cells is grown in growth media containing normal amino acids (“normal media”). The second population of cells is grown in media lacking a standard essential amino acid (such as lysine), but is then supplemented with a non-radioactive, isotopically labeled form of that essential amino acid (such as lysine labeled with ^13C atoms, rather than normal ^12C atoms), which is called “heavy media”. When the two populations of cells are each growing in the medium, they incorporate the amino acids into all of their proteins. The growth of cells maintained in the heavy media is no different from that in normal media. All peptides containing the heavy amino acids are heavier than their normal counterparts. The cells from each of the two populations of cells are lysed. The lysates from each of the two cell populations are then combined. The combined cell lysates are then analyzed by mass spectrometry. Pairs of chemically identical peptides of different stable isotope composition can be differentiated in a mass spectrometer due to their difference in mass. The ratio of peak intensities in the mass spectrum for such peptide pairs reflects the abundance ratio for the two proteins.
# This example describes SILAC studies that were performed to compare the effects of three different HDAC inhibitors (Compound A, Compound B, and tubastatin A) to a control on a human multiple myeloma cell line. The HDAC inhibitors were also compared amongst themselves to determine differences in their effects.
# A human myeloma cell line MM.1S was grown using either ^12C (light) or ^13C (heavy) lysine containing culture medium. The “heavy” cells were treated with DMSO as the control, and the “light” cells were treated with a single HDAC inhibitor at 37° C. for 6 hours. The heavy and light cells were lysed, and the lysates were mixed in 1:1 ratio and digested with the protease trypsin. The acetylated lysine containing peptides (due to the action of the HDAC inhibitor) in the digested peptide pool were captured by a non-specific anti-acetylated lysine antibody cocktail (the antibodies identify both light and heavy acetylated peptides), and subjected to mass spectrometry analysis in order to identify thousands of individual peptides.
# Thousands of peptides were identified in pairs (^12C and ^13C) due to their known mass differences. The amino acid sequence and quantitative ratio (Light/Heavy) of a given peptide in two differentially treated cell lysates were then determined and annotated with their possible protein (gene) sources.
# As stated above, three HDAC inhibitors (Compound A, Compound B, and Tubastatin A) were used. Thus, the SILAC method was performed three times, with a different HDAC inhibitor compared to a control each time. Accordingly, there are three pairs of quantitative data in the table below, i.e., Compound A:DMSO, Compound B:DMSO, and Tubastatin A:DMSO. A cut-off of 1.30 fold of change (increase or decrease) was then used to determine “changed” or “+” in the table, and any peptides with a fold of change less than 1.3 fold were determined to be “unchanged” or “0” in the table. Those peptides that were not identified were marked as “NA” in the table. […]
compound,measurement,setting,value
"O=C(NO)c1cnc(NC2(c3cccc(F)c3)CCCCC2)nc1 [Compound B, 2-((1-(3-fluorophenyl)cyclohexyl)amino)-N-hydroxypyrimidine-5-carboxamide]","light to heavy ratio (L/H ratio) of acetylated peptide, log 2 scale","FLNAENAQK(ac)FK (SEQ ID NO: 200), Ran-specific GTPase-activating protein [150], RANBP1",0.00
same,"light to heavy ratio (L/H ratio) of acetylated peptide, log 2 scale","FNQK(ac)GEVYK (SEQ ID NO: 149), Lipoamide acyltransferase component of branched-chain alpha-keto acid dehydrogenase complex mitochondrial [435], DBT",0.00
same,"light to heavy ratio (L/H ratio) of acetylated peptide, log 2 scale","FPHSAHQK(ac)YVR (SEQ ID NO: 253), Ribosomal protein L14 variant [71], RPL14",0.00
same,L/H ratio of acetylated peptide,"FQAK(ac)[…] (SEQ ID NO: 415), Microtubule-associated protein RP/EB family member 1 [66], MAPRE1",−1.00 log 2
same,"light to heavy ratio (L/H ratio) of acetylated peptide, log 2 scale","FWNK(ac)FLENK (SEQ ID NO: 187), NADH dehydrogenase [ubiquinone] 1 beta subcomplex subunit 6 [49], NDUFB6",0.00
same,light to heavy ratio (L/H ratio) of acetylated peptide AVDLIQK(ac)HK (SEQ ID NO: 546),"Flap endonuclease 1 [252], gene FEN1, inhibitor:DMSO",0.00 log 2
same,"light to heavy ratio (L/H ratio), log 2 scale, acetylated peptide GGVVGIK(ac)VDK (SEQ ID NO: 774)","Fructose-bisphosphate aldolase A [108], gene ALDOA, drug:DMSO",0.00
same,L/H ratio of acetylated peptide ASGLAAGK(ac)GVIVAK (SEQ ID NO: 37),"GART [156], log 2 scale, drug vs DMSO",0.00
same,"light to heavy ratio (L/H ratio) of acetylated peptide, log 2 scale","GDASK(ac)EDIDTAMK (SEQ ID NO: 161), Isoform 1 of Hydroxyacyl-coenzyme A dehydrogenase mitochondrial [241], HADH",0.00
same,"light to heavy ratio (L/H ratio) of acetylated peptide, log 2 scale","GDGTGGK(ac)SIYGER (SEQ ID NO: 196), Peptidyl-prolyl cis-trans isomerase B [116], PPIB",0.00
same,"light to heavy ratio (L/H ratio) of acetylated peptide, log 2 scale","GFGGK(ac)YGVER (SEQ ID NO: 162), Hematopoietic lineage cell-specific protein [123], HCLS1",0.00
same,"light to heavy ratio (L/H ratio) of acetylated peptide, log 2 scale","GIVK(ac)DIIHDPGR (SEQ ID NO: 207), 60S ribosomal protein L8 [46], RPL8",0.00
same,L/H ratio of acetylated peptide,"GK(ac)LEEQRPER (SEQ ID NO: 459), Tumor protein translationally-controlled 1 [102], TPT1",−0.42 log 2
same,L/H ratio of acetylated peptide,"GK(ac)YMLVR (SEQ ID NO: 377), Carbohydrate sulfotransferase 1 [296], CHST1",1.00 log 2
same,L/H ratio of acetylated peptide,"GLAPQNK(ac)PELQK (SEQ ID NO: 393), Isoform 2 of Protein FAM107B [225], FAM107B",0.69 log 2
same,"light to heavy ratio (L/H ratio) of acetylated peptide, log 2 scale","GLFIIDDK(ac)GILR (SEQ ID NO: 197), Peroxiredoxin-1 [136], PRDX1",0.00
same,L/H ratio of acetylated peptide LVK(ac)VWNLANCK (SEQ ID NO: 39),"GNB2L1 [175], log 2 scale, drug vs DMSO",0.00
same,L/H ratio of acetylated peptide IIVDELK(ac)QEVISTSSK (SEQ ID NO: 38),"GNB2L1 [271], log 2 scale, drug vs DMSO",0.00
same,L/H ratio of acetylated peptide,"GNTPK(ac)[…] (SEQ ID NO: 449), Nucleolar protein 56 [347], SNORD110, SNORD86, NOP56",−0.41 log 2
same,L/H ratio of acetylated peptide (ac)AHYNFK(ac)K (SEQ ID NO: 40),"GTPBP4 [7], log 2 scale, drug vs DMSO",0.00
same,L/H ratio of acetylated peptide,"GYGFGLIK(ac)LDLK (SEQ ID NO: 465), Voltage-dependent anion-selective channel protein 1 [28], VDAC1",−0.57 log 2
same,"light to heavy ratio (L/H ratio) of acetylated peptide, log 2 scale","GYLTK(ac)EDLR (SEQ ID NO: 216), Protein S100-A10 [28], S100A10",0.00
same,light to heavy ratio (L/H ratio) of acetylated peptide (ac)[…](ac)PGECLR (SEQ ID NO: 575),"Galectin-1 [13], gene LGALS1, inhibitor:DMSO",0.00 log 2
same,light to heavy ratio (L/H ratio) of acetylated peptide ISGASEK(ac)[…] (SEQ ID NO: 543),"Glutamate dehydrogenase 1 mitochondrial [503], gene GLUD1, inhibitor:DMSO",0.00 log 2
same,light to heavy ratio (L/H ratio) of acetylated peptide […](ac)YDNSLK (SEQ ID NO: 620),"Glyceraldehyde-3-phosphate dehydrogenase [139], gene GAPDH, inhibitor:DMSO",0.00 log 2
same,light to heavy ratio (L/H ratio) of acetylated peptide VVK(ac)QASEGPLK (SEQ ID NO: 597),"Glyceraldehyde-3-phosphate dehydrogenase [263], gene GAPDH, inhibitor:DMSO",0.00 log 2
same,light to heavy ratio (L/H ratio) of acetylated peptide AHLQK(ac)LMSDK (SEQ ID NO: 549),"Glycyl-tRNA synthetase [224], gene GARS, inhibitor:DMSO",0.00 log 2
same,"light to heavy ratio (L/H ratio), log 2 scale, acetylated peptide LLLLGAGESGK(ac)STIVK (SEQ ID NO: 769)","Guanine nucleotide-binding protein G(olf) subunit alpha [55], gene GNAL, drug:DMSO",0.00
same,L/H ratio of acetylated peptide AGGK(ac)AGK(ac)DSGK (SEQ ID NO: 15),"H2AFV [5:8], log 2 scale, drug vs DMSO",0.95
same,light to heavy ratio (L/H ratio) of acetylated peptide FSPDDK(ac)YSR (SEQ ID NO: 504),"H/ACA ribonucleoprotein complex subunit 3 [40], gene NOP10, inhibitor:DMSO",0.00 log 2
same,L/H ratio of acetylated peptide GQQQVFK(ac)GLNDK (SEQ ID NO: 41),"HADHA [406], log 2 scale, drug vs DMSO",0.00
same,L/H ratio of acetylated peptide EPVAVLK(ac)ANR (SEQ ID NO: 9),"HEXB [161], log 2 scale, drug vs DMSO",−0.40
